Marks after values point to notes of the source that are not given here.
Tests used:
[1] = test system: newly-ecdysed fifth instar larvae of G. pyloalis; test: Leaf dip bioassay; assay type: in vivo, Glyphodes pyloalis Walker
Protocol: The insects used in the present application is Glyphodes pyloalis Walker (Lepidoptera: Pyralidae) which was collected from infested mulberry orchards in the vicinity of Rasht, Iran. Mass rearing of insects was carried out in the laboratory under controlled conditions at 25±1° C., 70±5% RH and 16:8 L:D. Newly-ecdysed fifth instar larvae of G. pyloalis were used for the bioassay experiments. The Glyphodes pyloalis Walker hereinafter is referred to as G. pyloalis.
The toxicity of the encapsulated imidacloprid diluted in water for the newly-ecdysed fifth instar larvae of G. pyloalis was evaluated using leaf dip bioassay. The technical imidacloprid was dissolved in acetone and diluted to generate 6 serial dilutions with distilled water. Mulberry leaf discs with diameters of 3.5 cm were prepared, so that each petiole was placed in a vial containing water for providing moisture to the leaf discs for several days. These discs were then immersed in the dilutions for 45 seconds. Mortality was assessed after the treated larvae were maintained at 25±1° C., 70±10 R.H. for 24, 48, 72, 96 and 120 hours.

[2] = Photocatalytic degradation of indoxacarb under UV light; assay type: physicochemical
[3] = Photo degradation of indoxacarb in the batch reactor under natural light

In the case of `COC(=O)N(C(=O)N1CO[C@@]2(C(=O)OC)Cc3cc(Cl)ccc3C2=N1)c1ccc(OC(F)(F)F)cc1` [Indoxacarb, lndoxacarb], the “% mortality” value ([1]; 0.25 ppm, 24 h after treatment) is reported as 21 ± 2.91^g %, the “% mortality” value ([1]; 0.25 ppm, 72 h after treatment) is reported as 56.4 ± 8.84^bcdef % and the “% mortality” value ([1]; 0.25 ppm, 96 h after treatment) is reported as 61 ± 8.73^bcdef %. The “% mortality” value ([1]; 0.25 ppm, 120 h after treatment) was 62 ± 7.62^bcdef %, the “% mortality” value ([1]; 0.45 ppm, 24 h after treatment) was 34 ± 10.29^efg % and the “% mortality” value ([1]; 0.45 ppm, 48 h after treatment) was 47.9 ± 10^cdefg %. For the same compound, the “% mortality” value ([1]; 0.45 ppm, 72 h after treatment) was 59 ± 19.97^bcdef %, the “% mortality” value ([1]; 0.45 ppm, 96 h after treatment) was 63 ± 12.32^bcdef % and the “% mortality” value ([1]; 0.45 ppm, 120 h after treatment) was 64 ± 12.67^bcdef %. For the same compound, the “% mortality” value ([1]; 0.82 ppm, 24 h after treatment) was 34.32 ± 7.45^efg %, the “% mortality” value ([1]; 0.82 ppm, 48 h after treatment) was 51.5 ± 9.25^cdefg % and the “% mortality” value ([1]; 0.82 ppm, 72 h after treatment) was 63.58 ± 7.84^bcdef %. The “% mortality” value ([1]; 0.82 ppm, 96 h after treatment) was 76 ± 2.73^abcd %, the “% mortality” value ([1]; 0.82 ppm, 120 h after treatment) was 77 ± 2.23^abcd % and the “% mortality” value ([1]; 1.5 ppm, 24 h after treatment) was 44.16 ± 8.22^defg %. For the same compound, the “% mortality” value ([1]; 1.5 ppm, 48 h after treatment) was 62 ± 2.23^bcdef %, the “% mortality” value ([1]; 1.5 ppm, 72 h after treatment) was 74.4 ± 2.58^abcd % and the “% mortality” value ([1]; 1.5 ppm, 96 h after treatment) was 83 ± 2.23^abc %. For the same compound, the “% mortality” value ([1]; 1.5 ppm, 120 h after treatment) was 83.6 ± 2.07^abc %, the “% mortality” value ([1]; 2.8 ppm, 24 h after treatment) was 51.32 ± 8.9^cdefg % and the “% mortality” value ([1]; 2.8 ppm, 48 h after treatment) was 68.82 ± 5.05^abcde %. The “% mortality” value ([1]; 2.8 ppm, 72 h after treatment) was 76.66 ± 4.27^abcd %, the “% mortality” value ([1]; 2.8 ppm, 96 h after treatment) was 88.32 ± 6.55^ab % and the “% mortality” value ([1]; 2.8 ppm, 120 h after treatment) was 88.4 ± 6.57^ab %. For the same compound, the “% mortality” value ([1]; 4 ppm, 24 h after treatment) was 55 ± 3.87^bcdefg %, the “% mortality” value ([1]; 4 ppm, 48 h after treatment) was 71.98 ± 2.92^abcd % and the “% mortality” value ([1]; 4 ppm, 72 h after treatment) was 88.32 ± 7.57^ab %. For the same compound, the “% mortality” value ([1]; 4 ppm, 96 h after treatment) was 100%, the “% mortality” value ([1]; 4 ppm, 120 h after treatment) was 100 ± 0^a % and the “% degradation of indoxacarb” value ([2]; 10 ppm, 1 h) was 2.3%. The “% degradation of indoxacarb” value ([2]; 10 ppm, 3 h) was 7.44%, the “% degradation of indoxacarb” value ([2]; 10 ppm, 6 h) was 10.26% and the “% degradation of indoxacarb” value ([2]; 10 ppm, 18 h) was 13.07%. The “% degradation of indoxacarb” value ([2]; 20 ppm, 1 h) was 6.24%, the “% degradation of indoxacarb” value ([2]; 20 ppm, 3 h) was 12.49% and the “% degradation of indoxacarb” value ([2]; 20 ppm, 6 h) was 18.9%. The “% degradation of indoxacarb” value ([2]; 20 ppm, 18 h) was 22.03%, the “% degradation of indoxacarb” value ([2]; 30 ppm, 1 h) was 9.32% and the “% degradation of indoxacarb” value ([2]; 30 ppm, 3 h) was 13.07%. For the same compound, the “% degradation of indoxacarb” value ([2]; 30 ppm, 6 h) was 23.34%, the “% degradation of indoxacarb” value ([2]; 30 ppm, 18 h) was 25.21% and the “% degradation of indoxacarb” value ([2]; 40 ppm, 1 h) was 11.47%. For the same compound, the “% degradation of indoxacarb” value ([2]; 40 ppm, 3 h) was 15.04%, the “% degradation of indoxacarb” value ([2]; 40 ppm, 6 h) was 24.26% and the “% degradation of indoxacarb” value ([2]; 40 ppm, 18 h) was 25.39%. For the same compound, the “% degradation of indoxacarb” value ([2]; 50 ppm, 1 h) was 9.23%, the “% degradation of indoxacarb” value ([2]; 50 ppm, 3 h) was 13.34% and the “% degradation of indoxacarb” value ([2]; 50 ppm, 6 h) was 21.02%. For the same compound, the “% degradation of indoxacarb” value ([2]; 50 ppm, 18 h) was 21.02%, the “maximum amount of indoxacarb removed / degraded” value ([2]; after approximately 18 h, over all concentrations (10-50 ppm)) was “about 25%” and the “% photo degradation of indoxacarb” value ([3]; 10 ppm, 2 d) was 16.33%. For the same compound, the “% photo degradation of indoxacarb” value ([3]; 10 ppm, 4 d) was 19.02%, the “% photo degradation of indoxacarb” value ([3]; 10 ppm, 6 d) was 21.21% and the “% photo degradation of indoxacarb” value ([3]; 10 ppm, 8 d) was 23.4%. For the same compound, the “% photo degradation of indoxacarb” value ([3]; 10 ppm, 10 d) was 30.47%, the “% photo degradation of indoxacarb” value ([3]; 20 ppm, 2 d) was 22.26% and the “% photo degradation of indoxacarb” value ([3]; 20 ppm, 4 d) was 23.47%. The “% photo degradation of indoxacarb” value ([3]; 20 ppm, 6 d) was 25.17%, the “% photo degradation of indoxacarb” value ([3]; 20 ppm, 8 d) was 29.28% and the “% photo degradation of indoxacarb” value ([3]; 20 ppm, 10 d) was 33.4%. The “% photo degradation of indoxacarb” value ([3]; 30 ppm, 2 d) was 26.23%, the “% photo degradation of indoxacarb” value ([3]; 30 ppm, 4 d) was 29.2% and the “% photo degradation of indoxacarb” value ([3]; 30 ppm, 6 d) was 31.18%. For the same compound, the “% photo degradation of indoxacarb” value ([3]; 30 ppm, 8 d) was 33.16%, the “% photo degradation of indoxacarb” value ([3]; 30 ppm, 10 d) was 36.13% and the “% photo degradation of indoxacarb” value ([3]; 40 ppm, 2 d) was 22.26%. The “% photo degradation of indoxacarb” value ([3]; 40 ppm, 4 d) was 29.28%, the “% photo degradation of indoxacarb” value ([3]; 40 ppm, 6 d) was 31.34% and the “% photo degradation of indoxacarb” value ([3]; 40 ppm, 8 d) was 36.3%. The “% photo degradation of indoxacarb” value ([3]; 40 ppm, 10 d) was 39.21%, the “% photo degradation of indoxacarb” value ([3]; 50 ppm, 2 d) was 21.23% and the “% photo degradation of indoxacarb” value ([3]; 50 ppm, 4 d) was 26.35%. For the same compound, the “% photo degradation of indoxacarb” value ([3]; 50 ppm, 6 d) was 30.18%, the “% photo degradation of indoxacarb” value ([3]; 50 ppm, 8 d) was 32.23% and the “% photo degradation of indoxacarb” value ([3]; 50 ppm, 10 d) was 37.38%.
